The values that follow come from US9428456B2, “1-[m-carboxamido(hetero)aryl-methyl]-heterocyclyl-carboxamide derivatives” (Actelion Pharmaceuticals Ltd., priority 2012, dated 2016).

As a reminder, the EC50 is the concentration needed to bring the measured effect to its halfway point. The low end stands for greater potency, the high end for weaker potency.

Sequence of CXCR7 (P25106 whole entry): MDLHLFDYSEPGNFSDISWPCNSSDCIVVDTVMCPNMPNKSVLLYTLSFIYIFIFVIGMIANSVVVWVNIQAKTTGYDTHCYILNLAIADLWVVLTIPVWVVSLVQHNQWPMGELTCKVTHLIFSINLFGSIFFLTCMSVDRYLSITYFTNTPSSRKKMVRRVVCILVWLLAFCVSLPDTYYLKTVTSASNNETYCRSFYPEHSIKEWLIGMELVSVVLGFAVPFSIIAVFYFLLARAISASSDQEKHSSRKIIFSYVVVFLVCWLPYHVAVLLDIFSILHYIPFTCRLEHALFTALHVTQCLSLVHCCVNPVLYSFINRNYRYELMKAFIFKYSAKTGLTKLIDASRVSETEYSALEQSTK
Sequence of CXCR7 (P32121 whole entry partner): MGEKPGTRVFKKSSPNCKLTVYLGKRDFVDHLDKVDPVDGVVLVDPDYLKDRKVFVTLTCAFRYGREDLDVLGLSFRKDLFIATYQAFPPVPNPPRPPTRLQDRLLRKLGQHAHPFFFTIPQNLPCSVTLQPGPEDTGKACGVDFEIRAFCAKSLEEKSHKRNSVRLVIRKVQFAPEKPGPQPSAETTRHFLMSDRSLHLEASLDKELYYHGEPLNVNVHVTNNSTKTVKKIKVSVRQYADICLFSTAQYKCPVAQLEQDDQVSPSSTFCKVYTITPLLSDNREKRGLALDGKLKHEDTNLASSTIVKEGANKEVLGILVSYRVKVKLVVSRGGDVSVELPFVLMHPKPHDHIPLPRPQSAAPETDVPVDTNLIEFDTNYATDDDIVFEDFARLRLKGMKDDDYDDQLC

In this assay the target is CXCR7 (Homo sapiens (Human), UniProt P25106). Put plainly: PathHunter CHO-K1 CXCR7 b-arrestin assay (agonistic activity). The assay is classed as cell-based. The conditions noted are these: PathHunter CHO-K1 CXCR7 b-arrestin cell line. As to the method:
The CXCl12 receptor and CXCR7 agonistic activities of the compounds of formula (I) are determined in accordance with the following experimental method.
The assay is using the PathHunter™ CHO-K1 CXCR7 b-arrestin cell line from DiscoverX. The system is based on the Enzyme Fragment Complementation Technology. Two complementing fragments of the b-galactosidase enzyme are expressed within stably transfected cells. The larger portion of b-gal, termed EA for Enzyme Acceptor, is fused to the C-terminus of b-arrestin 2. The smaller fragment, termed ProLink™ tag, is fused to CXCR7 at the C-terminus. Upon activation, b-arrestin is recruited which forces the interaction of ProLink and EA, allowing complementation of the two fragments of b-gal and the formation of a functional enzyme which is capable of hydrolysing the substrate and generating a chemiluminescent signal.
CHO-K1 CXCR7 b-arrestin cells are detached from culture dishes with a cell dissociation buffer (Invitrogen, #13151-014) and collected in growing medium (F12 HAMS 90% (v/v)/FCS 10% (v/v), Penicilin/streptomycin 1% (v/v)). 5000 cells per well (in 20 μl) are seeded in a 384 well plate (white-walled, clear bottom; BD Falcon #353274). The plate is incubated at 37° C./5% CO2 for 24 hours. Medium is then replaced by 20 μl OPTIMEM (Invitrogen #31985) for 3 to 4 hours. Test compounds are dissolved at 10 mM in DMSO and serially diluted in DMSO to 200× of the final concentration for dose response curves. Compounds are then diluted 1:33.3 in HBSS1×. 5 μl/well of HBSS1×/20 mM HEPES/0.2% BSA are added to the assay plate followed by addition of 5 μl/well of diluted compounds. CXCL12 (Peprotech #300-28A) may be used as a reference agonist. The plate is incubated for 90 minutes at 37° C. 12 μl of detection reagent (Path Hunter Detection Kit, DiscoveRx, #93-0001) is transferred to the assay plate and to the plate is incubated for 1 hour at room temperature. Luminescent signal is read in a microplate reader (FLUOstar Optima, bmg). The calculated EC50 values may fluctuate depending on the daily cellular assay performance. Fluctuations of this kind are known to those skilled in the art. Average EC50 values from several measurements are given as geometric mean values.
Molecule `Cc1cccc(C(=O)Nc2cccc(CN3CCC(C(=O)NC4CCCCC4)CC3)c2)n1` [Example 1.081] gave an EC50 of 0.9 nM.

The molecule `CC(C)(C)c1ccc(C(=O)Nc2cccc(CN3CCC(C(=O)NC4CCCCC4)CC3)c2)cc1` [Example 1.032] showed an EC50 of 34 nM. Take `O=C(CCc1ccccc1)Nc1cccc(CN2CCC(C(=O)NC3CCCCC3)CC2)c1` [Example 1.034]: the concentration giving a half-maximal response (EC50) stood at 18 nM.

Molecule “rac-6-Trifluoromethyl-pyridine-2-carboxylic acid [3-((2S*,4S*)-4-cyclohexylcarbamoyl-2-methyl-piperidin-1-ylmethyl)-phenyl]-amide [Example 2.101]” came in with an EC50 of 5 nM. With `CC(C)(C)NC(=O)C1CCN(Cc2cccc(NC(=O)Cc3c(Cl)ccc(C(F)(F)F)c3Cl)c2)CC1` [Example 1.250], the EC50 came out at 3 nM. Next, `Cn1cnc(C(=O)Nc2cccc(CN3CCC(C(=O)NC4CCCCC4)CC3)c2)c1` [Example 1.051]: 130 nM. In turn, `CC(C)(C)NC(=O)C1CCN(Cc2cccc(NC(=O)Cc3c(F)cccc3Cl)c2)CC1` [Example 1.247] showed a concentration for a half-maximal effect (EC50) of 2 nM. Compared with the last molecule, the EC50 is about 65-fold lower. As for `CC(C)(C)NC(=O)C1CCN(Cc2cccc(NC(=O)C(C)(C)c3ccccc3)c2)CC1` [Example 1.311], the 50% effective concentration (EC50) came out at 1 nM. Turning to `O=C(Nc1cccc(CN2CCC(C(=O)NC3CC3)CC2)c1)c1cc(Cl)ccn1` [Example 1.200], it took 16 nM to reach a half-maximal effect (EC50). Turning to `O=C(Nc1cccc(CN2CCC(C(=O)NC3CCCCC3)CC2)c1)c1ncc[nH]1` [Example 1.038], the EC50 worked out at 13 nM. `CC(c1cccc(NC(=O)c2ncccn2)c1)N1CCC(C(=O)NC2CCCCC2)CC1` (racemic) [Example 1.195] showed an EC50 of 176 nM. In the case of `O=C(Nc1cccc(CN2CCC(C(=O)NC3CCCCC3)CC2)c1)c1cccc(Cl)n1` [Example 1.078], the EC50 turned out to be 1 nM.

`CC(C)(C)NC(=O)C1CCN(Cc2cccc(NC(=O)Cc3cccc(Cl)c3Cl)c2)CC1` [Example 1.246] came in with an EC50 of 3 nM. In turn, `CC(C)(C)CC(=O)Nc1cccc(CN2CCC(C(=O)NC3CCCCC3)CC2)c1` [Example 1.020] gave a concentration giving a half-maximal response (EC50) of 25 nM. Consider `O=C(Nc1cccc(CN2CCC(C(=O)NC3CCCCC3)CC2)c1)c1cnc[nH]1` [Example 1.040], for which a half-maximal response (EC50) required 1260 nM. For `O=C(Nc1cccc(CN2CCC(C(=O)NC3CCCCC3)CC2)c1)c1ccncn1` [Example 1.006], the midpoint of the response, the EC50, lay at 2 nM.

The molecule `CC(C(=O)Nc1cccc(CN2CCC(C(=O)NC(C)(C)C)CC2)c1)c1ccc(Cl)cc1` (centres unmarked) [Example 1.312] displayed an EC50 of 8 nM. As for `O=C(Nc1cccc(CN2CCC(C(=O)NC3CCCCC3)CC2)c1)c1cnccn1` [Example 1.141], the EC50 amounted to 2 nM. Take `Cc1cc(C(=O)Nc2cccc(CN3CCC(C(=O)NC(C)(C)C)CC3)c2)cnn1` [Example 7.001, 6-Methyl-pyridazine-4-carboxylic acid [3-(4-tert-butylcarbamoyl-piperidin-1-ylmethyl)-phenyl]-amide]: the concentration giving a half-maximal response (EC50) worked out at 62 nM. `CC(C)(C)NC(=O)C1CCN(Cc2cccc(NC(=O)C3(c4ccc(Cl)cc4Cl)CC3)c2)CC1` [Example 1.268] displayed a 50% effective concentration (EC50) of 2 nM. For `O=C(NC1CCCCC1)C1CCN(Cc2cccc(NC(=O)C3CC3c3ccccc3)c2)CC1` (racemic) [Example 1.029] the value was 5 nM. Next, `Cc1cnc(C(=O)Nc2cccc(C(C)N3CCC(C(=O)NC4CCCCC4)CC3)c2)cn1` (racemic) [Example 1.185]: 15 nM; `Cc1ccc(CN2CCC(C(=O)NC(C)(C)C)CC2)cc1NC(=O)c1cccc(C(F)(F)F)n1` [Example 1.301]: 2 nM; `O=C(Nc1cccc(CN2CCC(C(=O)NC3CCCCC3)CC2)c1)c1cc(C(F)(F)F)ccc1F` [Example 1.135]: 7 nM.

Turning to `Cc1cncc(C(=O)Nc2cccc(CN3CCC(C(=O)NC4CCCCC4)CC3)c2)c1` [Example 1.060], the concentration giving a half-maximal response (EC50) is 4 nM. For `Cc1ccc(C(=O)Nc2cc(CN3CCC(C(=O)NC4CCCCC4)CC3)ccc2Cl)s1` [Example 1.158] the value was 14 nM; for `COc1ccccc1CC(=O)Nc1cccc(CN2CCC(C(=O)NC3CCCCC3)CC2)c1` [Example 1.035], 4 nM. The molecule `O=C(Nc1cccc(CN2CCC(C(=O)NC3CCCCC3)CC2)c1)c1c(F)cccc1C(F)(F)F` [Example 1.145] showed an EC50 of 425 nM. Against the preceding molecule, the EC50 is about 110-fold higher. On to `COc1ccc(C(=O)Nc2cccc(C(C)N3CCC(C(=O)NC4CCCCC4)CC3)c2)cc1` (centres unmarked) [Example 1.167], for which the EC50 is 25 nM.

`O=C(Nc1cccc(CN2CCC(C(=O)NC3CCCCC3)CC2)c1)c1cncc(C2CC2)c1` [Example 1.147] returned an EC50 of 5 nM. On to `COc1ccccc1C(=O)Nc1cccc(CN2CCC(C(=O)NC3CCCCC3)CC2)c1` [Example 1.009], for which the midpoint of the response, the EC50, lay at 17 nM. Next, `COc1cccc(C(=O)Nc2cccc(CN3CCC(C(=O)NC4CCCCC4)CC3)c2)c1` [Example 1.023]: 4 nM; `Cc1ncccc1C(=O)Nc1cccc(CN2CCC(C(=O)NC3CCCCC3)CC2)c1` [Example 1.065]: 59 nM. For `CCN(CC)c1ccc(C(=O)Nc2cccc(C(C)N3CCC(C(=O)NC4CCCCC4)CC3)c2)cn1` (racemic) [Example 1.196] the value was 491 nM. Next, `CC(C)(C)NC(=O)C1CCN(Cc2cccc(NC(=O)CC3Cc4ccccc4C3)c2)CC1` [Example 1.272]: 2 nM; `Cc1ccc(CN2CCC(C(=O)NC(C)(C)C)CC2)cc1NC(=O)c1ccc(F)cc1` [Example 1.303]: 3 nM; `O=C(Nc1cccc(CN2CCC(C(=O)NC3CCCC3)CC2)c1)c1ccc(F)cc1` [Example 1.206]: 0.9 nM. Consider `O=C(Cc1ccc(Cl)cc1)Nc1cccc(CN2CCC(C(=O)NC3CCCCC3)CC2)c1` [Example 1.037], for which the EC50 stood at 34 nM. As for `CC(C)CNC(=O)C1CCN(Cc2cccc(NC(=O)c3cccc(C(F)(F)F)n3)c2)C1` (racemic) [Example 2.098, rac-6-Trifluoromethyl-pyridine-2-carboxylic acid [3-(3-isobutylcarbamoyl-pyrrolidin-1-ylmethyl)-phenyl]-amide], a half-maximal response (EC50) required 193 nM. `O=C(Nc1cc(CN2CCC(C(=O)NC3CCCCC3)CC2)ccc1Cl)c1ccncn1` [Example 1.157]: the half-maximal effective concentration (EC50) came to 2 nM. Against the preceding molecule, the EC50 is about 96-fold lower. Consider `CC(c1cccc(NC(=O)c2cccnc2)c1)N1CCC(C(=O)NC2CCCCC2)CC1` (racemic) [Example 1.171], for which it took 150 nM to reach a half-maximal effect (EC50). `O=C(Nc1ccc(Cl)c(CN2CCC(C(=O)NC3CCCC3)CC2)c1)c1cncc(C(F)(F)F)c1` [Example 1.225] came in with a half-maximal effective concentration (EC50) of 0.8 nM. This EC50 lies about 190-fold lower than the previous one. Turning to `Cc1ccc(C)c(C(=O)Nc2cccc(CN3CCC(C(=O)NC4CCCCC4)CC3)c2)c1` [Example 1.110], the midpoint of the response, the EC50, lay at 8 nM. For the molecule `CCc1cc(CN2CCC(C(=O)NC(C)(C)C)CC2)cc(NC(=O)c2cncc(C)c2)c1` [Example 1.330], the EC50 came to 285 nM. For `C/C=C/C(=O)Nc1cccc(CN2CCC(C(=O)NC(C)(C)C)CC2)c1` [Example 1.335] the value was 21 nM; for `CC(C)(C)NC(=O)C1CCN(Cc2cccc(NC(=O)c3ccc(N)cn3)c2)CC1` [Example 8.001, 5-Amino-pyridine-2-carboxylic acid [3-(4-tert-butylcarbamoyl-piperidin-1-ylmethyl)-phenyl]-amide], 4 nM; for `O=C(Nc1cccc(CN2CCC(C(=O)NC3CCCC3)CC2)c1)c1ccc(C(F)(F)F)cn1` [Example 1.210], 0.6 nM.

As for `Cc1cncc(C(=O)Nc2cc(CN3CCC(C(=O)NC(C)(C)C)CC3)ccc2C)c1` [Example 1.302], the EC50 was found to be 6 nM. The molecule `O=C(Nc1cccc(CN2CCC(C(=O)NC3CC3)CC2)c1)c1ccc(F)cn1` [Example 1.205] came in with an EC50 of 2 nM.

Molecule `O=C(Nc1cccc(CN2CCC(C(=O)NC3CCCCC3)CC2)c1)c1cccc(F)c1F` [Example 1.128] registered an EC50 of 5 nM. `O=C(CC1CCCCC1)Nc1cccc(CN2CCC(C(=O)NC3CCCCC3)CC2)c1` [Example 1.043] displayed an EC50 of 9 nM.

In turn, `CC(C)(C)NC(=O)C1CCN(Cc2cccc(NC(=O)C3(c4ccccc4)CC3)c2)CC1` [Example 1.309] registered an EC50 of 1 nM. With `COc1ccc(C(=O)Nc2cccc(CN3CCC(C(=O)NC4CCCCC4)CC3)c2)cc1` [Example 1.031], the EC50 amounted to 2 nM.

In turn, `CC(C)(C)NC(=O)C1CCN(Cc2cccc(NC(=O)CC3CCOCC3)c2)CC1` [Example 1.255] registered an EC50 of 137 nM.

The molecule `O=C(Nc1cccc(CN2CCC(C(=O)NC3CCCCC3)CC2)c1)c1ccncc1` [Example 1.053] yielded an EC50 of 40 nM. Next, `CCC(c1cccc(NC(=O)c2cncc(C)c2)c1)N1CCC(C(=O)NC2CCCCC2)CC1` (racemic) [Example 1.307]: 350 nM.
